Tested on: 192522-019-R-J2-PDC complex tumor spheroid viability
Test: Anticancer human tumor 192522-019-R-J2-PDC patient-derived colon adenocarcinoma cell line growth inhibition [POLQ]
Conditions: for IC50: curve of first compound; for viability, T/C: stronger effect = lower value
Outline: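 Patient-derived tumour cells were co-cultured with HUVEC and mesenchymal stem cells as multicellular spheroids at 37 °C. They were treated with POLQ inhibitors (novobiocin, ART-558, RP6685) alone or combined with other agents. Top concentrations were at or near clinical Cmax (otherwise 10 microM; SN-38 at 1 microM), decreasing in half-log steps.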

[1] = second compound 0.0316 µM, first compound 0.0316 µM
[2] = second compound 0.0316 µM, first compound 0.1 µM
[3] = second compound 0.0316 µM, first compound 0.316 µM
[4] = second compound 0.0316 µM, first compound 1 µM
[5] = second compound 0.1 µM, first compound 0.0316 µM
[6] = second compound 0.1 µM, first compound 0.1 µM
[7] = second compound 0.1 µM, first compound 0.316 µM
[8] = second compound 0.1 µM, first compound 1 µM
[9] = second compound 0.316 µM, first compound 0.0316 µM
[10] = second compound 0.316 µM, first compound 0.1 µM
[11] = second compound 0.316 µM, first compound 0.316 µM
[12] = second compound 0.316 µM, first compound 1 µM
[13] = second compound 1 µM, first compound 0.0316 µM
[14] = second compound 1 µM, first compound 0.1 µM
[15] = second compound 1 µM, first compound 0.316 µM
[16] = second compound 1 µM, first compound 1 µM
[17] = second compound 3.16 µM, first compound 0.0316 µM
[18] = second compound 3.16 µM, first compound 0.1 µM
[19] = second compound 3.16 µM, first compound 0.316 µM
[20] = second compound 3.16 µM, first compound 1 µM
[21] = second compound 10 µM, first compound 0.0316 µM
[22] = second compound 10 µM, first compound 0.1 µM
[23] = second compound 10 µM, first compound 0.316 µM
[24] = second compound 10 µM, first compound 1 µM
[25] = second compound 0.0316 µM, first compound 0.00316 µM
[26] = second compound 0.0316 µM, first compound 0.01 µM
[27] = second compound 0.1 µM, first compound 0.00316 µM
[28] = second compound 0.1 µM, first compound 0.01 µM
[29] = second compound 0.316 µM, first compound 0.00316 µM
[30] = second compound 0.316 µM, first compound 0.01 µM
[31] = second compound 1 µM, first compound 0.00316 µM
[32] = second compound 1 µM, first compound 0.01 µM
[33] = second compound 3.16 µM, first compound 0.00316 µM
[34] = second compound 3.16 µM, first compound 0.01 µM
[35] = second compound 10 µM, first compound 0.00316 µM
[36] = second compound 10 µM, first compound 0.01 µM
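Further: spheroids exposed to drugs for seven days before reading.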
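Wherever viability, T/C is given: 100% = DMSO vehicle control viability in luminescence.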

`O=C(Nc1ccc(O)c(NS(=O)(=O)c2ccc(F)cc2)c1)c1ccc(-c2ccccc2)cc1` + COC1C(OC(N)=O)C(O)C(Oc2ccc3c(O)c(NC(=O)c4ccc(O)c(CC=C(C)C)c4)c(=O)oc3c2C)OC1(C)C gave an IC50 (second compound 0.0316 µM) of over 10000 nM, an IC50 (second compound 0.1 µM) of over 10000 nM and an IC50 (second compound 0.316 µM) of over 10000 nM. It also gave an IC50 (second compound 1 µM) of over 10000 nM, an IC50 (second compound 3.16 µM) of over 10000 nM and an IC50 (second compound 10 µM) of over 10000 nM. For the same compound, the viability, T/C [1] was 109%, the viability, T/C [2] was 97.3% and the viability, T/C [3] was 95.8%. It also gave a viability, T/C [4] of 92.1%, a viability, T/C (second compound 0.0316 µM, first compound 3.16 µM) of 93% and a viability, T/C (second compound 0.0316 µM, first compound 10 µM) of 101%. It also gave a viability, T/C [5] of 105%, a viability, T/C [6] of 88.9% and a viability, T/C [7] of 97.5%. It also gave a viability, T/C [8] of 102%, a viability, T/C (second compound 0.1 µM, first compound 3.16 µM) of 95.5% and a viability, T/C (second compound 0.1 µM, first compound 10 µM) of 104%. It also gave a viability, T/C [9] of 103%, a viability, T/C [10] of 89.6% and a viability, T/C [11] of 98.3%. It also gave a viability, T/C [12] of 93.5%, a viability, T/C (second compound 0.316 µM, first compound 3.16 µM) of 94.7% and a viability, T/C (second compound 0.316 µM, first compound 10 µM) of 96.6%. For the same compound, the viability, T/C [13] was 95.7%, the viability, T/C [14] was 93.3% and the viability, T/C [15] was 111%. It also gave a viability, T/C [16] of 105%, a viability, T/C (second compound 1 µM, first compound 3.16 µM) of 95.5% and a viability, T/C (second compound 1 µM, first compound 10 µM) of 94.3%. The viability, T/C [17] was 104%, the viability, T/C [18] was 103% and the viability, T/C [19] was 95.7%. For the same compound, the viability, T/C [20] was 105%, the viability, T/C (second compound 3.16 µM, first compound 3.16 µM) was 108% and the viability, T/C (second compound 3.16 µM, first compound 10 µM) was 102%. For the same compound, the viability, T/C [21] was 95.9%, the viability, T/C [22] was 98.2% and the viability, T/C [23] was 120%. For the same compound, the viability, T/C [24] was 97.6%, the viability, T/C (second compound 10 µM, first compound 3.16 µM) was 113% and the viability, T/C (second compound 10 µM, first compound 10 µM) was 105%.
Work on `C=CCn1c(=O)c2cnc(Nc3ccc(N4CCN(C)CC4)cc3)nc2n1-c1cccc(C(C)(C)O)n1` + COC1C(OC(N)=O)C(O)C(Oc2ccc3c(O)c(NC(=O)c4ccc(O)c(CC=C(C)C)c4)c(=O)oc3c2C)OC1(C)C yielded an IC50 (second compound 0.0316 µM) of 664 nM, an IC50 (second compound 0.1 µM) of 675 nM and an IC50 (second compound 0.316 µM) of 656 nM. The IC50 (second compound 1 µM) was 704 nM, the IC50 (second compound 3.16 µM) was 737 nM and the IC50 (second compound 10 µM) was 761 nM. For the same compound, the viability, T/C [25] was 108%, the viability, T/C [26] was 87.3% and the viability, T/C [1] was 98.5%. For the same compound, the viability, T/C [2] was 93.9%, the viability, T/C [3] was 89.2% and the viability, T/C [4] was 28.2%. It also gave a viability, T/C [27] of 101%, a viability, T/C [28] of 93.8% and a viability, T/C [5] of 98%. The viability, T/C [6] was 90.3%, the viability, T/C [7] was 82.2% and the viability, T/C [8] was 33.7%. For the same compound, the viability, T/C [29] was 98.6%, the viability, T/C [30] was 91.6% and the viability, T/C [9] was 99.4%. It also gave a viability, T/C [10] of 105%, a viability, T/C [11] of 74.5% and a viability, T/C [12] of 35.9%. For the same compound, the viability, T/C [31] was 95.4%, the viability, T/C [32] was 96.1% and the viability, T/C [13] was 103%. For the same compound, the viability, T/C [14] was 106%, the viability, T/C [15] was 84.3% and the viability, T/C [16] was 34.9%. The viability, T/C [33] was 92.6%, the viability, T/C [34] was 95.4% and the viability, T/C [17] was 90.7%. It also gave a viability, T/C [18] of 93.5%, a viability, T/C [19] of 88% and a viability, T/C [20] of 36.2%. For the same compound, the viability, T/C [35] was 98.3%, the viability, T/C [36] was 97.3% and the viability, T/C [21] was 102%. For the same compound, the viability, T/C [22] was 90%, the viability, T/C [23] was 96.2% and the viability, T/C [24] was 35.7%.
For `Cn1ncnc1[C@H]1c2n[nH]c(=O)c3cc(F)cc(c23)N[C@@H]1c1ccc(F)cc1` + Cc1cccc(N(C)C(=O)C2C(O)CCN2c2nc(C)cc(C(F)(F)F)c2C#N)c1, the IC50 (second compound 0.0316 µM) was over 100 nM, the IC50 (second compound 0.1 µM) was over 100 nM and the IC50 (second compound 0.316 µM) was over 100 nM. It also gave an IC50 (second compound 1 µM) of over 100 nM, an IC50 (second compound 3.16 µM) of over 100 nM and an IC50 (second compound 10 µM) of over 100 nM. It also gave a viability, T/C (second compound 0.0316 µM, first compound 0.000316 µM) of 109%, a viability, T/C (second compound 0.0316 µM, first compound 0.001 µM) of 96.1% and a viability, T/C [25] of 96.3%. The viability, T/C [26] was 103%, the viability, T/C [1] was 110% and the viability, T/C [2] was 88.6%. The viability, T/C (second compound 0.1 µM, first compound 0.000316 µM) was 99.2%, the viability, T/C (second compound 0.1 µM, first compound 0.001 µM) was 96.3% and the viability, T/C [27] was 105%. The viability, T/C [28] was 101%, the viability, T/C [5] was 108% and the viability, T/C [6] was 101%. The viability, T/C (second compound 0.316 µM, first compound 0.000316 µM) was 111%, the viability, T/C (second compound 0.316 µM, first compound 0.001 µM) was 103% and the viability, T/C [29] was 114%. It also gave a viability, T/C [30] of 105%, a viability, T/C [9] of 103% and a viability, T/C [10] of 102%. The viability, T/C (second compound 1 µM, first compound 0.000316 µM) was 110%, the viability, T/C (second compound 1 µM, first compound 0.001 µM) was 108% and the viability, T/C [31] was 109%. The viability, T/C [32] was 103%, the viability, T/C [13] was 100% and the viability, T/C [14] was 95.3%. The viability, T/C (second compound 3.16 µM, first compound 0.000316 µM) was 125%, the viability, T/C (second compound 3.16 µM, first compound 0.001 µM) was 106% and the viability, T/C [33] was 112%. It also gave a viability, T/C [34] of 101%, a viability, T/C [17] of 118% and a viability, T/C [18] of 96.9%. It also gave a viability, T/C (second compound 10 µM, first compound 0.000316 µM) of 114%, a viability, T/C (second compound 10 µM, first compound 0.001 µM) of 103% and a viability, T/C [35] of 119%. The viability, T/C [36] was 102%, the viability, T/C [21] was 111% and the viability, T/C [22] was 101%.
